For seven compounds, IC50 results are on record in patent US20260216196A1, “IMIDAZO[1,2-A]PYRIDINE AND IMIDAZO[1,2-A]PYRAZINE DERIVATIVES AS MLLT1 AND MLLT3 INHIBITORS” (DARK BLUE THERAPEUTICS LTD., priority 2022, published 2026).

Assay [1] has as its target T1, MLLT1 (Homo sapiens, UniProt Q03111). Particulars: read-out: MLLT1 assay IC50; HTRF, 6His tagged MLLT1, biotinylated H3K9cro peptide; compound 20 μM to 20 nM, 11 data points in duplicate. On the technique in general: TR-FRET usually uses a lanthanide donor and a delayed reading to cut background.
The next assay concerns the target MLLT3 (Homo sapiens, UniProt P42568). The experiment in a line: HTRF IC50 determination assay, MLLT3 / H3K9cro peptide displacement.
In assay [2] the target is T1, MLLT1. The experiment in a line: biochemical. The following applies: MLLT1 assay IC50 (nM), HTRF, 6His tagged MLLT1, biotinylated H3K9cro peptide; compound 20 μM to 20 nM, 11 data points in duplicate.
[3] abbreviates: read-out: MLLT3 assay IC50, 6His tagged MLLT3, biotinylated H3K9cro peptide, compound 20 μM to 20 nM, 11 data points in duplicate.

Where two headings read alike, the source gives them in different places.

Chain of MLLT3 (P42568 whole entry): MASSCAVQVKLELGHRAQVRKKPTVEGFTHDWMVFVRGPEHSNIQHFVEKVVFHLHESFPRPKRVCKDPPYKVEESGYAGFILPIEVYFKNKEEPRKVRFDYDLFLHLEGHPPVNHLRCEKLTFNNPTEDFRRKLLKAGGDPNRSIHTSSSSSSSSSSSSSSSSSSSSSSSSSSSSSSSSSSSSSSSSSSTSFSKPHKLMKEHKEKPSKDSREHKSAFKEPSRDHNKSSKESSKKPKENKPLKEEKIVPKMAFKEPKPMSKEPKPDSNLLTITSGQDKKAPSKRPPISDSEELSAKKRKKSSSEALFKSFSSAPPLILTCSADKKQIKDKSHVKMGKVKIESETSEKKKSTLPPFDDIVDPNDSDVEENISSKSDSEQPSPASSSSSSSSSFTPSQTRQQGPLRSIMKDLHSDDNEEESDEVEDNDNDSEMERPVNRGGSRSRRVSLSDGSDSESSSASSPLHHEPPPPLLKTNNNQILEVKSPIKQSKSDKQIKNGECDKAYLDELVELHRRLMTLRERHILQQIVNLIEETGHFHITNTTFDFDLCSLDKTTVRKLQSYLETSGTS
T1 sequence (Q03111 whole entry): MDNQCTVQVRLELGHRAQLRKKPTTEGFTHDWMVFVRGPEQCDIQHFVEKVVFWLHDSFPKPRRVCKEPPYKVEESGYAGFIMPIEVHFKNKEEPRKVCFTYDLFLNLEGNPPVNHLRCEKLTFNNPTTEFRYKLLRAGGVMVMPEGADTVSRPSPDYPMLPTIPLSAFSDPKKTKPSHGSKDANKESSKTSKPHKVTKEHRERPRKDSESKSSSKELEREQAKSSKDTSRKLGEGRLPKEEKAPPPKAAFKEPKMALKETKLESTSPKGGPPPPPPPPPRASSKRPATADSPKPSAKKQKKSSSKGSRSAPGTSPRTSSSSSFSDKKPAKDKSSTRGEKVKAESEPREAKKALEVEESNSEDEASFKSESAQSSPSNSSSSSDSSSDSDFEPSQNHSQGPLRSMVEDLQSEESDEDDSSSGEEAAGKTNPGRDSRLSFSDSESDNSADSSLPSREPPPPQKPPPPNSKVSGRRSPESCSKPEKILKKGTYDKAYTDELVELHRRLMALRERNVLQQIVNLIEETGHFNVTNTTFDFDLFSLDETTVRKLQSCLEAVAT

What is called IC50 is the concentration at which inhibition is half-maximal. Turning to `C[C@H]1C[C@H](c2cn3cc(NC(=O)c4ccc5c(cnn5C)c4)ncc3n2)N(C)C1` (relative stereo) [Example 89, N-(2-((2R, rel-4S)-1,4-dimethylpyrrolidin-2-yl)imidazo[1,2-a]pyrazin-6-yl)-1-methyl-1H-indazole-5-carboxamide], the IC50 lay within 0.15 to 1.5 µM at MLLT1 [1] and 150 to 1500 nM on MLLT3 (setting [3]).

On to `C[C@@H]1C[C@H](c2cn3cc(NC(=O)c4ccc5c(cnn5C)c4)ncc3n2)N(C)C1` (relative stereo) [Example 90, N-(2-((2R, rel-4R)-1,4-dimethylpyrrolidin-2-yl)imidazo[1,2-a]pyrazin-6-yl)-1-methyl-1H-indazole-5-carboxamide], for which the results for the IC50 at MLLT1 [1] and on MLLT3 (setting [3]) were below 0.15 µM and 150 to 1500 nM, respectively.

Regarding `CO[C@H]1C[C@H](c2cn3cc(NC(=O)c4ccc5c(cnn5C)c4)ncc3n2)N(C)C1` (stereo in doubt) [Example 85, N-{2-[(rel-2R,4S)-4-methoxy-1-methylpyrrolidin-2-yl]imidazo[1,2-a]pyrazin-6-yl}-1-methylindazole-5-carboxamide], the IC50 on MLLT1 [1] lay in the range of 0.15 to 1.5 µM; at MLLT3 (setting [3]) it was 150 to 1500 nM.

As to `CO[C@H]1C[C@@H](c2cn3cc(NC(=O)c4ccc5c(cnn5C)c4)ncc3n2)N(C)C1` (stereo in doubt) [Example 86, N-{2-[(rel-2S,4S)-4-methoxy-1-methylpyrrolidin-2-yl]imidazo[1,2-a]pyrazin-6-yl}-1-methylindazole-5-carboxamide], the IC50 on MLLT1 [1] was 0.15 to 1.5 µM; at MLLT3 (setting [3]), 1500 to 20000 nM.

With `CO[C@@H]1C[C@H](c2cn3cc(NC(=O)c4ccc5c(cnn5C)c4)ncc3n2)N(C)C1` (stereo in doubt) [Example 103, N-{2-[(rel-2R,4R)-4-methoxy-1-methylpyrrolidin-2-yl]imidazo[1,2-a]pyrazin-6-yl}-1-methylindazole-5-carboxamide], the concentration for half-maximal inhibition (IC50) was in the range of 0.15 to 1.5 µM at MLLT1 [1] and 150 to 1500 nM at MLLT3 (setting [3]).

For the compound `CO[C@@H]1C[C@@H](c2cn3cc(NC(=O)c4ccc5c(cnn5C)c4)ncc3n2)N(C)C1` (stereo in doubt) [Example 104, N-{2-[(rel-2S,4R)-4-methoxy-1-methylpyrrolidin-2-yl]imidazo[1,2-a]pyrazin-6-yl}-1-methylindazole-5-carboxamide], the values for the IC50 at MLLT1 [1] and at MLLT3 (setting [3]) were 0.15 to 1.5 µM and 1500 to 20000 nM, respectively.

On to `CN1C[C@H](F)C[C@@H]1c1cn2cc(NC(=O)c3ccc4c(cnn4C)c3)ncc2n1` [Example 105, N-(2-((2R,4R)-4-fluoro-1-methylpyrrolidin-2-yl)imidazo[1,2-a]pyrazin-6-yl)-1-methyl-1H-indazole-5-carboxamide], for which the IC50 against MLLT1 [2] is 150 to 1500 nM; at MLLT3 (MLLT3 assay IC50 (nM), 6His tagged MLLT3, biotinylated H3K9cro peptide, compound 20 μM to 20 nM, 11 data points in duplicate), 150 to 1500 nM.
